Patent publication US8269051B2, “Wickerol and method for producing the same” (The Kitasato Institute, priority 2008, dated 2012)
Values after ≈ are worked out from the molar mass of the structure shown.

Legend:
MDCK cells = test: Proliferation of MDCK cells alone (cytotoxicity); assay type: cell-based, canine; details: Canis lupus familiaris; MDCK cells without virus; read-out: IC50, inhibition of proliferation of the MDCK cells alone
[1] = tested on: the microorganisms shown in the Table 3; test: Antimicrobial activity, overall statement; assay type: cell-based; details: against the microorganisms shown in the Table 3
Description: Antimicrobial activity of the wickerol of the present invention was as follows. Each circular filter paper (Advantec, diameter: 6 mm) was soaked with 10 μl of methanol solution of the wickerol (1 mg/ml), and then allowed to air-dry for a predetermined time to remove a solvent. After the solvent was removed, the circular filter paper was placed on each of the following test microorganism-containing agar plates, and cultured for 24 hours at 35° C. Thereafter, a diameter of a growth inhibitory circle formed around each of the circular filter papers was measured, and the results were shown in Table 3.

[2] = tested on: influenza virus A/PR/8/34; details: ratio of MDCK cytotoxicity IC50 to antiviral IC50
[3] = tested on: influenza virus A/PR/8/34; test: microbe, parasite or virus in culture; details: unidentified influenza virus, PR/8, MDCK, 72 h, read-out: IC50, inhibition of replication of influenza virus A/PR/8/34 through the infection of the MDCK cells

CC1CCC2CC3(C)CCC4C3C1(CCC4(C)O)C2(C)C (stereo not shown) [wickerol]
IC50 (MDCK cells): 7 µg/mL (≈ 24.1 µM) | antimicrobial activity [1]: almost no antimicrobial activity | inhibitory activity against the influenza virus replication relative to cytotoxicity [2]: approximately 100 times | IC50 [3]: 0.07 µg/mL (≈ 0.241 µM)
